Drawing on article PMC7996970 (The Biochemical journal, 2020), this text covers Kd and Km for two molecules.

Test [1] concerns the target isocitrate dehydrogenase 1 (IDH1) (Homo sapiens, UniProt O75874, D273L/R132H). Put plainly: isothermal titration calorimetry. It is filed as binding.
Test [2] addresses isocitrate dehydrogenase 1 (IDH1) (Homo sapiens, UniProt O75874, D273S). The test can be described thus: steady-state kinetics, NADPH absorbance at […] nm. It is filed as biochemical.
The target in test [3] is isocitrate dehydrogenase 1 (IDH1) (Homo sapiens, UniProt O75874, K217M). Put plainly: steady-state kinetics, NADPH absorbance at […] nm. It is filed as biochemical.
In test [4] the target is isocitrate dehydrogenase 1 (IDH1) (Homo sapiens, UniProt O75874, K217Q). The test can be described thus: steady-state kinetics, NADPH absorbance at […] nm. It is filed as biochemical.
The target of test [5] is isocitrate dehydrogenase 1 (IDH1) (Homo sapiens, UniProt O75874, D273L). Put plainly: steady-state kinetics, NADPH absorbance at […] nm. It counts as biochemical.
Test [6] deals with isocitrate dehydrogenase 1 (IDH1) (Homo sapiens, UniProt O75874, D273N). Put plainly: steady-state kinetics, NADPH absorbance at […] nm. It counts as biochemical.
For test [7], the target named is isocitrate dehydrogenase 1 (IDH1) (Homo sapiens, UniProt O75874). Put plainly: steady-state kinetics, NADPH absorbance at […] nm. It is filed as biochemical.

As usually defined, the Kd is the concentration at which binding is half-saturated. A low value points to tighter binding. In general, Km refers to the substrate concentration at which the rate is half of its maximum.

Chain of isocitrate dehydrogenase 1 (IDH1) (Homo sapiens, UniProt O75874) (O75874 2-414): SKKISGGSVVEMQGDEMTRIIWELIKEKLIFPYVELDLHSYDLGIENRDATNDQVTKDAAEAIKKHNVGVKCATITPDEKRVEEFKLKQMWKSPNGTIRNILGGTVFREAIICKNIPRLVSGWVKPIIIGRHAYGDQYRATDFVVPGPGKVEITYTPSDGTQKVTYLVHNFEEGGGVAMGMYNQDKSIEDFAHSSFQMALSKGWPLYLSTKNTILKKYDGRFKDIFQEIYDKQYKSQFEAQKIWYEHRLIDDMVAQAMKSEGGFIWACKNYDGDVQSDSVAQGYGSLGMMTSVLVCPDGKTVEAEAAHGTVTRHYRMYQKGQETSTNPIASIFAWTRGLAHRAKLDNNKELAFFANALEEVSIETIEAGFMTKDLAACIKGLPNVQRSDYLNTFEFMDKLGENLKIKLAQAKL
Chain of isocitrate dehydrogenase 1 (IDH1) (Homo sapiens, UniProt O75874, D273S) (O75874 2-414 D273S): as the sequence (O75874 2-414) above, with D272S counted along it
Chain of isocitrate dehydrogenase 1 (IDH1) (Homo sapiens, UniProt O75874, K217Q) (O75874 2-414 K217Q): as the sequence (O75874 2-414) above, with K216Q counted along it
Chain of isocitrate dehydrogenase 1 (IDH1) (Homo sapiens, UniProt O75874, D273L) (O75874 2-414 D273L): as the sequence (O75874 2-414) above, with D272L counted along it
Chain of isocitrate dehydrogenase 1 (IDH1) (Homo sapiens, UniProt O75874, D273N) (O75874 2-414 D273N): as the sequence (O75874 2-414) above, with D272N counted along it
Chain of isocitrate dehydrogenase 1 (IDH1) (Homo sapiens, UniProt O75874, K217M) (O75874 2-414 K217M): as the sequence (O75874 2-414) above, with K216M counted along it
Chain of isocitrate dehydrogenase 1 (IDH1) (Homo sapiens, UniProt O75874, D273L/R132H) (O75874 2-414 R132H/D273L): as the sequence (O75874 2-414) above, with R131H, D272L counted along it

Turning to `Cc1ccccc1C(C(=O)NC1CCCCC1)N(C(=O)Cn1ccnc1C)c1cccc(F)c1` (stereo not shown) [AGI-5198], binding in test [1] was characterised by a dissociation constant (Kd) of 3.3 ± 0.5 µM.
Turning to `O=C(O)CC(C(=O)O)C(O)C(=O)O` (stereo not shown) [isocitrate], the Km in test [2] is 12000 ± 3000 µM; in test [3] it was 150 ± 20 µM; in test [4], 250 ± 20 µM; in test [5] it was 1900 ± 200 µM; in test [6], 19000 ± 2000 µM; in test [7], 61 ± 5 µM.
